From patent US20240059680A1, “N-(2,3-DIHYDRO-1,4-BENZOXAZIN-4-YL)-3-ISOPROPYL-7-(2,3,5-TRIFLUOROPHENYL)BENZO-THIOPHENE-2-CARBOXAMIDE DERIVATIVES AND SIMILAR COMPOUNDS FOR THE TREATMENT OF HEARTWORM INFECTIONS” (ELANCO TIERGESUNDHEIT AG, priority 2020, published 2024) come the findings set out here.

Converted amounts (≈) assume the structure as drawn. Where two headings read alike, the source gives them in different places. Bounds are passed on as bounds.

For test [1], the system named is Dirofilaria immitis microfilariae. The experiment in a line: In Vitro Assay 3: Dirofilaria immitis microfilariae (DIROIM L1) motility. The settings on record: 72 h. It is filed as cell-based.
Test [2] has as its system Adult Nippostrongylus brasiliensis. Kind of test: In Vitro Assay 5: Nippostrongylus brasiliensis (NIPOBR), acetylcholine esterase readout. It is filed as cell-based. As to the method:
In Vitro Assay 5: Nippostrongylus Brasiliensis (NIPOBR)
Adult Nippostrongylus brasiliensis were washed with saline buffer containing 100 U/ml penicillin, 0.1 mg/ml streptomycin and 2.5 μg/ml amphotericin B. Test compounds were dissolved in DMSO and worms were incubated in medium in a final concentration of 10 μg/ml (10 ppm), 1 μg/ml (1 ppm) and 0.1 μg/ml (0.1 ppm) respectively. An aliquot of the medium was used to determine the acetylcholine esterase activity in comparison to a negative control. The principle of measuring acetylcholine esterase as readout for anthelmintic activity was described in Rapson et al (1986) and Rapson et al (1987).
Based on the evaluation of a wide concentration range, concentration-response curves as well as EC50-values were calculated.

Test [3] concerns the target D. immitis Slo-1 (Dirofilaria immitis, UniProt I0DFK5). The experiment in a line: In Vitro Assay 2: D. immitis Slo-1, membrane potential measurement in recombinant CHO cell line. It is filed as cell-based.
Test [4] concerns the target C. elegans Slo-1a (Caenorhabditis elegans, UniProt Q95V25).
Protocol: For transfection with plasmid DNA to express C. elegans Slo-1a (accession number AAL28102) CHO cells were passaged to 40% confluence before adding the transfection solution to the cell culture. The transfection solution included 300 μL OptiMEM (Life Technologies, Nr.: 31985), 2 μL (=6 μg) of plasmid DNA containing the C. elegans Slo-1a gene and 9 μL FugeneHD (Promega, Nr.: E2311), and was added to the cells prior to incubation for 48 hours at 37° C., 5% CO2. The transfection medium was exchanged for the selection medium which contains additional G418 (2 mg/ml, Invitrogen, Nr.: 10131) and the cells were seeded into 384 well plates (300 cells/well). After a few weeks, the remaining surviving cells were tested with a voltage sensitive dye (Membrane Potential Assay Kit, Molecular Devices Nr.: R8034) for K+ channel expression. Positive cell clones were purified by the limited dilution technique. For this the clone with the highest and most robust signal in the voltage sensitive dye assay was further subcloned (incubated) in 384 well plates (0.7 cells/well) to obtain clonal purity. This generated a final stable CHO cell line expressing the C. elegans Slo-1a.
Cell culture conditions Cells were cultured at 37° C. and 5% CO2 in MEMalpha with Gutamax I (Invitrogen, Nr.: 32571), supplemented with 10% (v/v) heat inactivated fetal bovine serum (Invitrogen, Nr.: 10500), G418 (1 mg/ml, Invitrogen, Nr.: 10131). Cells were detached using Accutase (Sigma, Nr.: A6964).
Membrane Potential Measurements
Laboratory compound testing was performed on 384-well microtiter plates (MTPs, Greiner, Nr.: 781092). 8000 cells/well were plated onto 384-well MTPs and cultured for 20 to 24 hours at 37° C. and 5% CO2. After removal of the cell culture medium, the cells were washed once with tyrode (150 mM NaCl, 0.3 mM KCl, 2 mM CaCl2, 1 m M MgCl2, 0.8 mM NaH2PO4, 5 mM Glucose, 28 mM Hepes, pH 7.4) and then loaded with the voltage sensitive dye of the Membrane Potential Assay Kit diluted in tyrode for 1 h at room temperature. After starting the measurement of fluorescence using a FLIPR Tetra (Molecular Devices, Exc. 510-545 nm, Emm. 565-625 nm), test compounds were added followed by the addition of KCl tyrode (final assay concentration: 70 mM KCl, 2 mM CaCl2, 1 mM MgCl2, 0.8 mM NaH2PO4, 5 mM Glucose, 28 mM Hepes, pH 7.4, including the voltage sensitive dye). The measurement was completed after 7 minutes.
EC50 values were calculated using a four-parameter plotting by the Scilligence ELN/Regmol Software Tool, Bioassay.
Test [5] has as its system Dirofilaria immitis third-stage larvae. Kind of test: In Vitro Assay 4: Dirofilaria immitis (DIROIM L4) larval motility. It is filed as cell-based. The following applies: 72 h.
Setting [6] is: acetylcholine esterase activity in medium vs negative control, adult worms, read-out: EC50.

Sequence of D. immitis Slo-1 (I0DFK5 1-1119): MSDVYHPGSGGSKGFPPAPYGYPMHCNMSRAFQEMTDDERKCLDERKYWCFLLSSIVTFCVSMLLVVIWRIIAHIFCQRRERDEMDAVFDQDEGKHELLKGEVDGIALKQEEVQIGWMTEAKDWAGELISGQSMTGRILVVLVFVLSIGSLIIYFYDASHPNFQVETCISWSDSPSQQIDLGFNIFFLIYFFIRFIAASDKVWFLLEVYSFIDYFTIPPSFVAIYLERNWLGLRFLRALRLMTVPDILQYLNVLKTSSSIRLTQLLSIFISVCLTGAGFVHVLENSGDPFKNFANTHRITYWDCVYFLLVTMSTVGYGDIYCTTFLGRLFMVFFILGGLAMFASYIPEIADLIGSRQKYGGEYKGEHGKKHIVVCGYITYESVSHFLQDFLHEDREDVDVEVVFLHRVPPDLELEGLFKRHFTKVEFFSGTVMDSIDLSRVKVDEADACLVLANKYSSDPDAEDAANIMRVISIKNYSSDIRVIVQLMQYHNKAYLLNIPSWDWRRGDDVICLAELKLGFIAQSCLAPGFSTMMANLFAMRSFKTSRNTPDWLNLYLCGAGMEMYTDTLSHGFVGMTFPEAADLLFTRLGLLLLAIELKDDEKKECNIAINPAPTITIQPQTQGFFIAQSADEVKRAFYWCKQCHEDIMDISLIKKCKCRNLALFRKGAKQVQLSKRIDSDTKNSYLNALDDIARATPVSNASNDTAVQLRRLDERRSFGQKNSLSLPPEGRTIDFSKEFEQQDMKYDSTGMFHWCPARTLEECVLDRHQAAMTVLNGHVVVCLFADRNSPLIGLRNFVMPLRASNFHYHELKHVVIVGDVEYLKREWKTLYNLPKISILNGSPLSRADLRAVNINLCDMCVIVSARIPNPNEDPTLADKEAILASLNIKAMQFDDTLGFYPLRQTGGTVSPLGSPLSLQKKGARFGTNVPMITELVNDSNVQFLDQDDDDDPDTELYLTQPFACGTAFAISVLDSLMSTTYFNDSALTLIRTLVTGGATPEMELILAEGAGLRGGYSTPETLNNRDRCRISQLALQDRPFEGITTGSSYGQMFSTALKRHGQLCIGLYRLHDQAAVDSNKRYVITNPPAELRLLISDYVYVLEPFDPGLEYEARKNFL
Sequence of C. elegans Slo-1a (Q95V25 whole entry): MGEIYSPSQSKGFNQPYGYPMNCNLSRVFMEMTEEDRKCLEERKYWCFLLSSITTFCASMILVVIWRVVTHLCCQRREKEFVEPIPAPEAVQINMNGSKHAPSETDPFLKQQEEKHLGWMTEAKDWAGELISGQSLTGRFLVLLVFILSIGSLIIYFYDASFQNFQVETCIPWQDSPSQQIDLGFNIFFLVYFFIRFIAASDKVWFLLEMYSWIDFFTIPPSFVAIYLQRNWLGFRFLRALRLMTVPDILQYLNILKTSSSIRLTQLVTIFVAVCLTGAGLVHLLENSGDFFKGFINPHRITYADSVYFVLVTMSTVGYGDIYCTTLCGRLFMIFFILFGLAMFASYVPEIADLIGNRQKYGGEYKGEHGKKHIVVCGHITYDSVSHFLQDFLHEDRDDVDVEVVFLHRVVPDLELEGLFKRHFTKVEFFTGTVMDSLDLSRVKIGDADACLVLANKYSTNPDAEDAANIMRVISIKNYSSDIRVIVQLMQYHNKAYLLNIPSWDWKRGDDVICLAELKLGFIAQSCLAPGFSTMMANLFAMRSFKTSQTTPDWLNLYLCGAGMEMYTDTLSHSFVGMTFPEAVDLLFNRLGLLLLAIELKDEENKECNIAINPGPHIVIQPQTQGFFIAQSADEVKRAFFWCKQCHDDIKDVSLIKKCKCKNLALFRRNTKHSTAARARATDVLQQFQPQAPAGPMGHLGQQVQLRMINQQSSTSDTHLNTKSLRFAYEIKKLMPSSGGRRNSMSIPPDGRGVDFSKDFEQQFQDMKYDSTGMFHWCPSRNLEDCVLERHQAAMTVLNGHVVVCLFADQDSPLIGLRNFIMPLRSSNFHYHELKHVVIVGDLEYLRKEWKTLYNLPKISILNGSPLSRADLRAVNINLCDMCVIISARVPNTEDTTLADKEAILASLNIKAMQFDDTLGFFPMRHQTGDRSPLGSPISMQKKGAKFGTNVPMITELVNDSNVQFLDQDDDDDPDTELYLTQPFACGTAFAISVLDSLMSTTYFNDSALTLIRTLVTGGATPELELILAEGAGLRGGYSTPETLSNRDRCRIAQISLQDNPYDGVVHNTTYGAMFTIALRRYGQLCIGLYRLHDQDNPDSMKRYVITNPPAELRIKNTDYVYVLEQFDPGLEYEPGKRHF

As a reminder, the EC50 is the midpoint of the concentration-response curve. With `CC(C)c1c(C(=O)NN2CCOc3ccccc32)sc2c(-c3cc(F)cc(F)c3F)nccc12` [Example 2.2, N-(2,3-Dihydro-1,4-benzoxazin-4-yl)-3-isopropyl-7-(2,3,5-trifluorophenyl)-thieno[2,3-c]pyridine-2-carboxamide], the EC50 was less than 0.1 µg/mL in test [1]; 0.1 to 1 µg/mL (≈ 0.207 to 2.07 µM) in test [2] (setting [6]); 100 to 1000 nM in test [3]; less than 100 nM in test [4]; less than 0.1 µg/mL in test [5].
Turning to `O=C(NN1CCOc2ccccc21)c1sc2c(-c3cc(F)cc(F)c3F)nccc2c1N1CCOCC1` [Example 2.1, N-(2,3-Dihydro-1,4-benzoxazin-4-yl)-3-morpholino-7-(2,3,5-trifluorophenyl)thieno-[2,3-c]pyridine-2-carboxamide], the EC50 in test [1] is 0.1 to 1 µg/mL (≈ 0.19 to 1.9 µM); in test [2] (setting [6]), greater than 1 µg/mL; in test [3] it was 100 to 1000 nM; in test [4] it was 100 to 1000 nM; in test [5], 0.1 to 1 µg/mL (≈ 0.19 to 1.9 µM).
Regarding `CC(C)c1c(C(=O)NN2CCOc3ccccc32)cnc2c(-c3cc(F)cc(F)c3F)ncn12` [Example 11.1, N-(2,3-Dihydro-4H-benzo[b][1,4]oxazin-4-yl)-4-isopropyl-8-(2,3,5-trifluoro-phenyl)-imidazo[1,5-a]pyrimidine-3-carboxamide], the EC50 is 0.1 to 1 µg/mL (≈ 0.214 to 2.14 µM) in test [1]; greater than 1 µg/mL in test [2] (setting [6]); greater than 1000 nM in test [3]; 100 to 1000 nM in test [4]; less than 0.1 µg/mL in test [5].
In the case of `CC(C)c1c(C(=O)NN2CCOc3ccccc32)sc2c(-c3cc(F)cc(F)c3F)c(F)cnc12` [Example 6.3, N-(2,3-Dihydro-4H-benzo[b][1,4]oxazin-4-yl)-6-fluoro-3-isopropyl-7-(2,3,5-trifluoro-phenyl)thieno[3,2-b]pyridine-2-carboxamide], the EC50 in test [1] is less than 0.1 µg/mL; in test [2], less than 0.1 µg/mL; in test [3], less than 100 nM; in test [4], less than 100 nM; in test [5], less than 0.1 µg/mL.
Regarding `CC(C)c1c(C(=O)NN2CCOc3ccccc32)oc2c(-c3cc(F)cc(F)c3F)cccc12` [Example 19.1, N-(2,3-Dihydro-1,4-benzoxazin-4-yl)-3-(1-methylethyl)-7-[2,3,5-tris(fluoranyl)-phenyl]benzofuran-2-carboxamide], the EC50 is 0.1 to 1 µg/mL (≈ 0.214 to 2.14 µM) in test [2] (setting [6]) and less than 0.1 µg/mL in test [5].
With `O=C(NN1CCOc2ccccc21)c1sc2c(-c3cc(F)cc(F)c3F)ccnc2c1N1CC(F)C1` [Example 6.6, N-(2,3-dihydro-4H-benzo[b][1,4]oxazin-4-yl)-3-(3-fluoroazetidin-1-yl)-7-(2,3,5-trifluorophenyl)thieno[3,2-b]pyridine-2-carboxamide], the EC50 in test [1] was less than 0.1 µg/mL; in test [2] (setting [6]), greater than 1 µg/mL; in test [3], greater than 1000 nM; in test [4], 100 to 1000 nM; in test [5], 0.1 to 1 µg/mL (≈ 0.194 to 1.94 µM).
For `O=C(NN1CCOc2ccccc21)c1sc2c(-c3cc(F)cc(F)c3F)ccnc2c1N1CCOCC1` [Example 6.8, N-(2,3-Dihydro-4H-benzo[b][1,4]oxazin-4-yl)-3-morpholino-7-(2,3,5-trifluoro-phenyl)thieno[3,2-b]pyridine-2-carboxamide], in that order: less than 0.1 µg/mL, greater than 1 µg/mL, 100 to 1000 nM, less than 100 nM and less than 0.1 µg/mL.
For `O=C(NN1CCOc2ccccc21)c1sc2c(-c3cc(F)cc(F)c3F)c(F)cnc2c1N1CC(F)C1` [Example 6.2, N-(2,3-dihydro-4H-benzo[b][1,4]oxazin-4-VI)-6-fluoro-3-(3-fluoroazetidin-1-yl)-7-(2,3,5-trifluorophenyl)thieno[3,2-b]pyridine-2-carboxamide] the same measures were less than 0.1 µg/mL, greater than 1 µg/mL, greater than 1000 nM, 100 to 1000 nM and 0.1 to 1 µg/mL (≈ 0.188 to 1.88 µM).
For `CC(C)c1c(C(=O)NN2CCOc3ccccc32)cnc2c1nnn2-c1cc(F)cc(F)c1F` [Example 14.1, N-(2,3-Dihydro-4H-benzo[b][1,4]oxazin-4-yl)-7-isopropyl-3-(2,3,5-trifluorophenyl)-3H-[1,2,3]triazolo[4,5-b]pyridine-6-carboxamide] the same measures were less than 0.1 µg/mL, greater than 1 µg/mL, greater than 1000 nM, greater than 1000 nM and greater than 1 µg/mL.
Consider `CC(C)c1c(C(=O)NN2CCOc3ccccc32)n(C)c2c(-c3cc(F)cc(F)c3F)cccc12` [Example 17.2, N-(2,3-Dihydro-4H-benzo[b][1,4]oxazin-4-yl)-3-isopropyl-1-methyl-7-(2,3,5-trifluoro-phenyl)-1H-indole-2-carboxamide], for which the 50% effective concentration (EC50) in test [2] (setting [6]) was greater than 1 µg/mL; in test [3], greater than 1000 nM; in test [4] it was greater than 1000 nM; in test [5], greater than 1 µg/mL.
Regarding `CC(C)c1c(C(=O)NN2CCOc3ccccc32)sc2c(-c3cc(F)cc(F)c3F)ccnc12` [Example 6.7, N-(2,3-Dihydro-4H-benzo[b][1,4]oxazin-4-yl)-3-isopropyl-7-(2,3,5-trifluorophenyl)-thieno [3,2-b]pyridine-2-carboxamide], the EC50 in test [1] was less than 0.1 µg/mL; in test [3], less than 100 nM; in test [4], less than 100 nM; in test [5], less than 0.1 µg/mL.
As to `CC(C)n1c(C(=O)NN2CCOc3ccccc32)nc2c(-c3cc(F)cc(F)c3F)cccc21` [Example 13.1, N-(2,3-Dihydro-4H-benzo[b][1,4]oxazin-4-yl)-1-isopropyl-4-(2,3,5-trifluorophenyl)-1H-benzo[d]imidazole-2-carboxamide], the EC50 in test [1] is 0.1 to 1 µg/mL (≈ 0.214 to 2.14 µM); in test [2] (setting [6]), greater than 1 µg/mL; in test [3] it was greater than 1000 nM; in test [4], 100 to 1000 nM; in test [5], 0.1 to 1 µg/mL (≈ 0.214 to 2.14 µM).
Turning to `CC(C)(O)c1c(C(=O)NN2CCOc3ccccc32)sc2c(-c3cc(F)cc(F)c3F)ccnc12` [Example 6.5, N-(2,3-Dihydro-4H-benzo[b][1,4]oxazin-4-yl)-3-(2-hydroxypropan-2-yl)-7-(2,3,5-trifluorophenyl)thieno[3,2-b]pyridine-2-carboxamide], the EC50 in test [1] was less than 0.1 µg/mL; in test [2] (setting [6]), 0.1 to 1 µg/mL (≈ 0.2 to 2 µM); in test [3], less than 100 nM; in test [4], less than 100 nM; in test [5] it was less than 0.1 µg/mL.
`CC(C)c1c(C(=O)NN2CCOc3ccccc32)[nH]c2c(-c3cc(F)cc(F)c3F)cccc12` [Example 17.1, N-(2,3-dihydro-1,4-benzoxazin-4-yl)-3-(1-methylethyl)-7-[2,3,5-tris(fluoranyl)-phenyl]-1H-indole-2-carboxamide]: the EC50 is less than 0.1 µg/mL in test [1]; greater than 1 µg/mL in test [2] (setting [6]); greater than 1000 nM in test [3]; greater than 1000 nM in test [4]; greater than 1 µg/mL in test [5].
Turning to `CC(C)n1c(C(=O)NN2CCOc3ccccc32)nc2c(-c3cc(F)cc(F)c3F)nccc21` [Example 12.1, N-(2,3-Dihydro-4H-benzo[b][1,4]oxazin-4-yl)-1-isopropyl-4-(2,3,5-trifluorophenyl)-1H-imidazo[4,5-c]pyridine-2-carboxamide], the EC50 is 0.1 to 1 µg/mL (≈ 0.214 to 2.14 µM) in test [1]; greater than 1 µg/mL in test [2] (setting [6]); greater than 1000 nM in test [3]; greater than 1000 nM in test [4]; less than 0.1 µg/mL in test [5].
`Cc1nn(-c2cc(F)cc(F)c2F)c2ncc(C(=O)NN3CCOc4ccccc43)c(C(C)C)c12` [Example 10.2, N-(2,3-Dihydro-4H-benzo[b][1,4]oxazin-4-yl)-4-isopropyl-3-methyl-1-(2,3,5-trifluorophenyl)-1H-pyrazolo[3,4-b]pyridine-5-carboxamide]: the EC50 in test [1] was 0.1 to 1 µg/mL (≈ 0.208 to 2.08 µM); in test [2] (setting [6]), greater than 1 µg/mL; in test [3] it was greater than 1000 nM; in test [4], greater than 1000 nM; in test [5] it was greater than 1 µg/mL.
`Cc1nn2c(C(C)C)c(C(=O)NN3CCOc4ccccc43)nnc2c1-c1c(F)cccc1F` [Example 5.1, 8-(2,6-Difluorophenyl)-N-(2,3-dihydro-1,4-benzoxazin-4-yl)-4-isopropyl-7-methyl-pyrazolo[5,1-c][1,2,4]triazine-3-carboxamide]: the EC50 in test [1] is less than 0.1 µg/mL; in test [2] (setting [6]) it was greater than 1 µg/mL; in test [3], greater than 1000 nM; in test [4], 100 to 1000 nM; in test [5], 0.1 to 1 µg/mL (≈ 0.215 to 2.15 µM).
For `Cc1nn2c(C(C)C)c(C(=O)NN3CCOc4ccccc43)cnc2c1-c1c(F)cccc1F` [Example 3.1, 3-(2,6-Difluorophenyl)-N-(2,3-dihydro-1,4-benzoxazin-4-yl)-7-isopropyl-2-methyl-pyrazolo[1,5-a]pyrimidine-6-carboxamide], in that order: less than 0.1 µg/mL, greater than 1 µg/mL, 100 to 1000 nM, less than 100 nM and less than 0.1 µg/mL.
Compound `CC(C)c1c(C(=O)NN2CCOc3ccccc32)sc2c(-c3cc(F)cc(F)c3F)ccnc12` [6,7] showed an EC50 in test [2] of less than 0.1 µg/mL.
With `CN(C)c1c(C(=O)NN2CCOc3ccccc32)cnc2c1ccn2-c1cc(F)cc(F)c1F` [Example 18.1, N-(2,3-Dihydro-4H-benzo[b][1,4]oxazin-4-yl)-4-(dimethylamino)-1-(2,3,5-trifluorophenyl)-1H-pyrrolo[2,3-b]pyridine-5-carboxamide], the EC50 is greater than 1 µg/mL in test [2] (setting [6]), greater than 1000 nM in test [3], 100 to 1000 nM in test [4] and less than 0.1 µg/mL in test [5].
